# Tested on: Human alphaherpesvirus 1
# Test: Antiviral activity against HSV1 assessed as plaque reduction at 30 to 200 […]
# Format: functional
# Parameters: scale not given: the % may be the effect or the level left
structure (smiles),measurement,value
CC1(C)C[C@H](O)C[C@@]2(C)[C@H]1CC[C@H]1C[C@H]3C[C@]12CC[C@]3(C)O[C@@H]1O[C@H](CO)[C@@H](O)[C@H](O)[C@H]1O [STEMODINOSIDE B],Activity,77%

# Reference: ChEMBL document CHEMBL1158997, “New Stemodane Diterpenes from Stemodia maritima” (1992)
